According to patent publication US6492137B1, “Response element compositions and assays employing same” (The Salk Institute for Biological Studies, priority 1989, dated 2002):

Key:
[1] = molecular target: T1, VDR (Homo sapiens, UniProt P11473); assay: Gel retardation DNA-binding assay with VDR-expressing COS cell extracts; set-up: expressed in transfected cells; host or cells: COS cells (whole-cell extract); conditions: VDR COS cell extract
T1 sequence (P11473 1-427): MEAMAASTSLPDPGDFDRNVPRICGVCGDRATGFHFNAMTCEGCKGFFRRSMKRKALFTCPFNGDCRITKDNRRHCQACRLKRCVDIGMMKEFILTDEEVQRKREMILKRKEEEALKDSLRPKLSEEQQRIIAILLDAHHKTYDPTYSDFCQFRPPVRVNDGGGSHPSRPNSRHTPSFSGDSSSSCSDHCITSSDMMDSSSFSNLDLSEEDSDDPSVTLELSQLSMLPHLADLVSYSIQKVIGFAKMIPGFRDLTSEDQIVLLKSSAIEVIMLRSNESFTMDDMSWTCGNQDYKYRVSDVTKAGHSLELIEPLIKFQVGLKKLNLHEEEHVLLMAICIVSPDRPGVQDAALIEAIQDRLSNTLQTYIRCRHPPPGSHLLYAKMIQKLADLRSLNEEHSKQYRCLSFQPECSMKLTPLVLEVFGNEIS
Protocol: For DNA binding assays, COS cells were cultured in DMEM with 10% calf bovine serum and transfected by the calcium phosphate method with 20 μg of the pCMX receptor expression plasmid for 6 hours followed by a glycerol shock. After incubating the transfected COS cells for another 48 hours, the cells were harvested to prepare extracts for the DNA binding assay, carried out as described by Damm et al., Nature 339: 593-597 (1989). The extracts were made in 20 mM HEPES (pH 7.4), 0.4 M KCl, 2 mM DTT and 20% glycerol. A similar method was employed to prepare a whole cell extract from F9 stem cells. For the binding, 5 μg (COS) or 10 μg (F9) of proteins was incubated on ice for 20 minutes, first in 20 mM HEPES, 80 mM KCl, 1 mM DTT, 0.1% NP40, 2.5 μg of poly dI/dC, and 10% glycerol (cold competitor oligonucleotides, when included, were added during this pre-incubation period). Then 40 fmole of ^32P-labeled oligonucleotide probe (1-2×10^5 cpm, prepared by filling-in reaction using Klenow polymerase in the presence of α-^32P-dCTP) was added to the reaction mixture, followed by incubation at room temperature for 30 minutes. The receptor-DNA complexes were resolved by electrophoresis through 5% polyacrylamide gel containing 5% glycerol at 6 V/cm at room temperature.
Finally, in vitro DNA-binding assays were carried out with COS cell extracts containing one of these receptor proteins.

[2] = molecular target: T2, RARα (Homo sapiens, UniProt P10276); assay: ΔSV-CAT reporter cotransfection assay in CV-1 cells with RARα expression plasmid, ±RA; type: cell-based; set-up: expressed in transfected cells; host or cells: CV-1 (monkey kidney); conditions: RA 1 μM
T2 sequence (P10276 1-462): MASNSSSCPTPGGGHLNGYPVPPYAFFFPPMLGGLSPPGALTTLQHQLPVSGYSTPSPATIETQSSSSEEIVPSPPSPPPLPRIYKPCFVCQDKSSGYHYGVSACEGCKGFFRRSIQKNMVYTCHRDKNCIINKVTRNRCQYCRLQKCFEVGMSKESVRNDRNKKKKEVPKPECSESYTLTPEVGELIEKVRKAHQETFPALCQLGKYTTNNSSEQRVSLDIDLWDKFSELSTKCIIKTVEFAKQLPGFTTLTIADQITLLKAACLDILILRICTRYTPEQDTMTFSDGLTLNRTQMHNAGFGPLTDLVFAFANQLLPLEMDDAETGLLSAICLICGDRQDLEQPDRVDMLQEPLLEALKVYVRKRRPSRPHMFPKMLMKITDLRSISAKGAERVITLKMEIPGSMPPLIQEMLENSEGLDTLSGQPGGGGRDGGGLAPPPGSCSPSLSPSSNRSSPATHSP
Text: Receptor expression plasmids used in the following cotransfection assays have been described previously (pRShTRβ [see Thompson, et al., Proc. Natl. Acad. Sci. U.S.A. 86: 3494-3498 (1989)]; pRShRARα [see Giguere, et al., Nature 330: 624-629 (1987)]; pRShRARβ and pRshRARγ [see Ishikawa, et al., Mol. Endocrinol, 4: 837-844 (1990)]; and pRShVDR, [Schule, et al., Cell 61: 497-504 (1990)]. A basal reporter plasmid ΔSV-CAT was constructed by replacing the TK promoter in TK-CAT [Damm, et al., Nature 339: 593-597 (1989)] with the SphI-HindIII fragment of the SV40 early promoter. All of the recombinant CAT reporter plasmids used herein harbor a single copy of the indicated oligonucleotides at the unique HindIII site upstream of the SV40 promoter. Identity of the inserted oligonucleotides was confirmed by sequencing. To improve production of receptor proteins in COS cells, a new eukaryotic expression vector pCMX was prepared by modifying the plasmid CDM8 [Seed, B., Nature 329: 840-842 (1987)]. The CDM8 was cut with MluI and StuI in order to release the DNA fragment encoding the CMV/T7 promoter, SV40 small t intron/poly A signal, polyoma virus enhancer/origin, and SV40 enhancer/origin. The resulting fragment was ligated to a larger fragment of PvuII-digested PUC19. An internal deletion was introduced between unique BamHI and BclI sites present in the DCM8 portion. The stuffer sequence flanked by XbaI sites was replaced with a synthetic polylinker coding for 5′-KpnI/Asp718-EcoRV-BamHI -MscI-NheI-3′, followed by a stretch of 5′-[…]-3′ (SEQ ID NO:48) which can function as a universal termination signal for protein translation. The coding sequence of the luciferase [de Wet, et al., Mol. Cell. Biol. 7: 725-737 (1987)] and human TRβ, RARα, and VDR was placed in the polylinker region of the pCMX, generating pCMX-LUC, Pcmx-Htrβ, pCMX-hRARα, and pCMX-hVDR, respectively. The translation start site of the RARα was modified to […] by attaching the synthetic linker encoding a consensus translation start signal [Hollenberg, et al., Cell 55: 899-906 (1988)]. […]

## DR-3: perfect tandem repeat of AGGTCA hexamers separated by 3 nucleotides (SEQ ID NO:25) (AGCTTCAGGTCAAGGAGGTCAGAGAGCT; DNA, backbone not given here; double-stranded DNA response element with agct overhangs, cloned into reporter)
[1]
  VDR binding to labeled oligonucleotide probe: specific protein-DNA complex
[2]
  RA response (in words): clear activity
